Results taken from patent publication US20230265056A1, “CRYSTALLINE FORMS OF BENZAMIDE COMPOUND AND PROCESS FOR PREPARING THE SAME” (CRYSTAL PHARMATECH CO., LTD., priority 2020, published 2023).
Converted amounts (≈) assume the structure as drawn.

Tests used:
[1] = would covert to Form A under certain conditions; cited from earlier work
[2] = Hygroscopicity by DVS test, with XRPD before and after; format: physicochemical; details: DVS, 25° C.
Protocol: The dynamic vapor sorption diagrams of the present disclosure were collected on Intrinsic-type and Intrinsic Plus-type dynamic vapor sorption instruments of SMS company. The process parameters of the dynamic vapor sorption test of the present disclosure were as follows:
Protection gas and its flow rate: N2, 200 mL/minute
Minimum dm/dt equilibration time: 10 minutes
Maximum Equilibration Time: 180 minutes
Relative humidity range: 0% RH-95% RH-0% RH, 50% RH-95% RH-0% RH
Relative humidity gradient: 10% (0% RH-90% RH-0% RH), 5% (90% RH-95% RH and 95% RH-90% RH).
Weigh approximately 10 mg of a form of formula (I) (i.e., Form A from WO2020234779A1), 10 mg of Form J and 10 mg of amorphous for DVS test, and then collect the obtained solid for XRPD analysis. The DVS plots of Form A, Form J and amorphous were shown in FIGS. 6, 8 and 10, and the XRPD overlay were shown in
Following is Description and definition of hygroscopicity (see appendix XIX J, guidance for hygroscopicity evaluation of Pharmacopoeia of the People's Republic of China 2010): […]

[3] = Intrinsic dissolution of compressed thin tablet; format: physicochemical; details: pH 1.5 aqueous HCl solution
Protocol: Approximately 100 mg of each of Form J (from example 1) and Form A (from WO2020234779A1) were compressed by intrinsic dissolution mold under 10 kN pressure to obtain a thin tablet with surface area of 1.0 cm2, respectively. Dissolution experiment was performed on the tablets, and the corresponding result was summarized in Table 4, dissolution profile was shown in FIG. 16.

[4] = Solid-state stability (XRPD and HPLC purity); format: physicochemical; details: for Purity: HPLC; for Solid form: XRPD
Protocol: Weigh appropriate amount of Form J (from example 1) into a 5-mL glass vial, and then seal the vial with parafilm (pricked 5 pinholes). Place the vial under 25° C./60% RH and 40° C./75% RH for some time, and then separate several solids out for XRPD and HPLC purity test.

[5] = Crystal habit by PLM; format: physicochemical; details: compared with Form A
Protocol: About 10 mg of Form J (from example 1) and Form A (from WO2020234779A1) were weighed and placed onto a glass slide, respectively, the solid were dispersed with several vacuum pump oil, and then covered with a cover glass. The samples were observed using PLM.

[6] = PSD test; format: physicochemical; details: Isopar G (0.2% lecithin), before and after sonication for 30 s, compared with Form A
Protocol: Approximately 10-30 mg of each of Form J (from example 1) and Form A (from WO2020234779A1) were added into 5 mL Isopar G (0.2% lecithin) to form a suspension, respectively. The suspension was loaded into SDC system for data collection, which was collected before and after sonication for 30 s.

[7] = Sticking propensity (powder adhering to punch tip); format: physicochemical; details: 6 mm circle punches, 10 kN pressure, compared with Form A
Protocol: Approximately 30 mg of each of Form J (from example 1) and Form A (from WO2020234779A1) were compressed by 6 mm circle punches under 10 kN pressure, respectively. The loading mass (ML) and tablet mass (MT) were recorded, and mass percentage of powder adhering to punch tip (ma) was calculated by the equation of ma=(ML−MT)/ML×100%.

[8] = physchem; details: thermodynamic from solid
Protocol: Suspend Form J (from example 1), amorphous (from example 2) and Form A (from WO2020234779A1) in Simulated Gastric Fluid (SGF), Fasted-State Simulated Intestinal Fluid (FaSSIF), Fed-State Simulated Intestinal Fluid (FeSSIF) and pure water, respectively. After equilibrium for 1 hour, 8 hours and 24 hours, filter the solution for HPLC test.

Q: Which Thermodynamic stability [1] does the source give for `C=CC(=O)N(C)CCOc1c(N)ncnc1-c1cc(F)cc(NC(=O)c2ccc(C3CC3)cc2F)c1C` [Form B, N-(3-(6-amino-5-(2-(N-methylacrylamido)ethoxy)pyrimidin-4-yl)-5-fluoro-2-methylphenyl)-4-cyclopropyl-2-fluorobenzamide] here?
A: The Thermodynamic stability was “less thermodynamically stable”.

Q: With `C=CC(=O)N(C)CCOc1c(N)ncnc1-c1cc(F)cc(NC(=O)c2ccc(C3CC3)cc2F)c1C` [Form J, N-(3-(6-amino-5-(2-(N-methylacrylamido)ethoxy)pyrimidin-4-yl)-5-fluoro-2-methylphenyl)-4-cyclopropyl-2-fluorobenzamide] as the compound, how does the “Water uptake at 25° C., 80%” value ([2]; 80% relative humidity) read?
A: Its value is 0.53%.

Q: What about the “Water uptake at 25° C., 90%” value ([2]; 90% relative humidity) of the same compound?
A: The value was 0.60%.

Q: What about the “Dissolution compared with Form A” value [3] of the same compound?
A: The value was “larger total dissolution amount and higher cumulative dissolution rate than Form A”.

Q: And the Cumulative dissolution amount ([3]; 5 mins)?
A: Its Cumulative dissolution amount is 1.1 mg.

Q: What about the Cumulative dissolution amount ([3]; 10 mins) of the same compound?
A: The Cumulative dissolution amount was 2.5 mg.

Q: What about the Cumulative dissolution amount ([3]; 15 mins) of the same compound?
A: The Cumulative dissolution amount was 2.9 mg.

Q: What about the Cumulative dissolution amount ([3]; 20 mins) of the same compound?
A: Its Cumulative dissolution amount is 3.3 mg.

Q: And the Cumulative dissolution amount ([3]; 25 mins)?
A: The Cumulative dissolution amount was 3.9 mg.

Q: What about the Cumulative dissolution amount ([3]; 30 mins) of the same compound?
A: The Cumulative dissolution amount was 4.7 mg.

Q: And the Cumulative dissolution amount ([3]; 60 mins)?
A: The Cumulative dissolution amount was 5.6 mg.

Q: What about the Cumulative dissolution amount ([3]; 75 mins) of the same compound?
A: Its Cumulative dissolution amount is 7.2 mg.

Q: And the “Form change and HPLC purity decrease on storage” value ([4]; 25° C./60% RH and 40° C./75% RH for 8 weeks)?
A: The value was “no obvious form change and HPLC purity decrease”.

Q: And the “Purity/initial Purity” value ([4]; 25° C./60% RH, 1 week)?
A: The value was 99.6%.

Q: What about the Purity ([4]; 25° C./60% RH, 1 week) of the same compound?
A: Its Purity is 99.09 area %.

Q: And the Solid form ([4]; 25° C./60% RH, 1 week)?
A: Its Solid form is “Form J”.

Q: What about the “Purity/initial Purity” value ([4]; 25° C./60% RH, 2 weeks) of the same compound?
A: The value was 99.0%.

Q: And the Purity ([4]; 25° C./60% RH, 2 weeks)?
A: The Purity was 98.48 area %.

Q: What about the Solid form ([4]; 25° C./60% RH, 2 weeks) of the same compound?
A: The Solid form was “Form J”.

Q: And the “Purity/initial Purity” value ([4]; 25° C./60% RH, 4 weeks)?
A: Its value is 99.2%.

Q: And the Purity ([4]; 25° C./60% RH, 4 weeks)?
A: Its Purity is 98.71 area %.

Q: What about the Solid form ([4]; 25° C./60% RH, 4 weeks) of the same compound?
A: The Solid form was “Form J”.

Q: And the “Purity/initial Purity” value ([4]; 25° C./60% RH, 8 weeks)?
A: Its value is 98.7%.

Q: And the Purity ([4]; 25° C./60% RH, 8 weeks)?
A: Its Purity is 97.94 area %.

Q: What about the Solid form ([4]; 25° C./60% RH, 8 weeks) of the same compound?
A: The Solid form was “Form J”.

Q: What about the “Purity/initial Purity” value ([4]; 40° C./75% RH, 1 week) of the same compound?
A: The value was 99.6%.

Q: And the Purity ([4]; 40° C./75% RH, 1 week)?
A: Its Purity is 99.05 area %.

Q: What about the Solid form ([4]; 40° C./75% RH, 1 week) of the same compound?
A: The Solid form was “Form J”.

Q: What about the “Purity/initial Purity” value ([4]; 40° C./75% RH, 2 weeks) of the same compound?
A: The value was 98.9%.

Q: What about the Purity ([4]; 40° C./75% RH, 2 weeks) of the same compound?
A: Its Purity is 98.39 area %.

Q: What about the Solid form ([4]; 40° C./75% RH, 2 weeks) of the same compound?
A: The Solid form was “Form J”.

Q: What about the “Purity/initial Purity” value ([4]; 40° C./75% RH, 4 weeks) of the same compound?
A: Its value is 99.0%.

Q: What about the Purity ([4]; 40° C./75% RH, 4 weeks) of the same compound?
A: Its Purity is 98.42 area %.

Q: And the Solid form ([4]; 40° C./75% RH, 4 weeks)?
A: The Solid form was “Form J”.

Q: What about the “Purity/initial Purity” value ([4]; 40° C./75% RH, 8 weeks) of the same compound?
A: Its value is 98.0%.

Q: And the Purity ([4]; 40° C./75% RH, 8 weeks)?
A: Its Purity is 97.32 area %.

Q: And the Solid form ([4]; 40° C./75% RH, 8 weeks)?
A: The Solid form was “Form J”.

Q: What about the Crystal habit [5] of the same compound?
A: The Crystal habit was “better crystal habit than Form A”.

Q: And the Particle size distribution [6]?
A: Its Particle size distribution is “more uniform particle size distribution than Form A”.

Q: What about the Sticking propensity [7] of the same compound?
A: The Sticking propensity was “lower sticking propensity than Form A”.

Q: What about the solubility kinetic at 1 h ([8]; fassif) of the same compound?
A: The solubility kinetic at 1 h was 24 µg/mL (≈ 47.3 µM).

Q: What about the solubility kinetic at 4 h ([8]; fassif) of the same compound?
A: Its solubility kinetic at 4 h is 14 µg/mL (≈ 27.6 µM).

Q: What about the solubility kinetic at 24 h ([8]; fassif) of the same compound?
A: Its solubility kinetic at 24 h is 16 µg/mL (≈ 31.5 µM).

Q: What about the solubility kinetic at 1 h ([8]; fessif) of the same compound?
A: Its solubility kinetic at 1 h is 130 µg/mL (≈ 256 µM).

Q: What about the solubility kinetic at 4 h ([8]; fessif) of the same compound?
A: The solubility kinetic at 4 h was 53 µg/mL (≈ 104 µM).

Q: What about the solubility kinetic at 24 h ([8]; fessif) of the same compound?
A: Its solubility kinetic at 24 h is 57 µg/mL (≈ 112 µM).

Q: What about the solubility kinetic at 1 h ([8]; simulated gastric fluid) of the same compound?
A: Its solubility kinetic at 1 h is 2400 µg/mL (≈ 4730 µM).

Q: And the solubility kinetic at 4 h ([8]; simulated gastric fluid)?
A: Its solubility kinetic at 4 h is 2700 µg/mL (≈ 5320 µM).

Q: What about the solubility kinetic at 24 h ([8]; simulated gastric fluid) of the same compound?
A: Its solubility kinetic at 24 h is 2600 µg/mL (≈ 5120 µM).

Q: What about the solubility kinetic at 1 h ([8]; water) of the same compound?
A: The solubility kinetic at 1 h was 12 µg/mL (≈ 23.6 µM).

Q: And the solubility kinetic at 4 h ([8]; water)?
A: The solubility kinetic at 4 h was 15 µg/mL (≈ 29.6 µM).

Q: What about the solubility kinetic at 24 h ([8]; water) of the same compound?
A: Its solubility kinetic at 24 h is 19 µg/mL (≈ 37.4 µM).
